{
  "source": "patent US4071411A",
  "about": "“Antitumor antibiotics aclacinomycins A and B [RD-9187A]” (priority 1974, dated 1978)",
  "key": {"L1210 cells": {"tested_on": "L1210 cells", "experiment": "cells", "format": "cell-based, mice", "settings": "3 days; for IC50: Mus musculus, L1210, 72 h, 37° C., read-out: ID50, growth; for inhibition of cell growth: below 1 mcg./ml. in the medium"}, "Rat": {"tested_on": "Rat", "experiment": "acute toxicity, single injection", "format": "in vivo", "settings": "rats"}, "[1]": {"experiment": "acute toxicity, single injection", "format": "in vivo, Rat", "settings": "rat, in vivo, single injection"}, "[2]": {"tested_on": "DNA synthesis (L1210 cells)", "experiment": "cells", "format": "cell-based, mice", "settings": "Mus musculus, L1210, 1 h; 14C-precursor incorporation, 37° C., 60 min.; read-out: ID50, DNA synthesis"}, "[3]": {"experiment": "cardiotoxicity (general statement)", "settings": "in vivo"}, "ascitic hepatoma AH44": {"tested_on": "ascitic hepatoma AH44", "experiment": "survival of Donryu rats grafted with ascitic hepatoma AH44", "format": "in vivo", "settings": "2 mg./kg./day i.p., 10 consecutive days; control average survival 14.5 days"}, "Sarcoma 180": {"tested_on": "Sarcoma 180", "experiment": "growth of Sarcoma 180 in mice", "format": "in vivo"}, "Ehrlich carcinoma": {"tested_on": "Ehrlich carcinoma", "experiment": "growth of Ehrlich carcinoma in mice", "format": "in vivo", "settings": "ascites and solid forms"}, "[4]": {"tested_on": "lymphoma 6C3HED/OG, ascitic type", "experiment": "ascitic lymphoma 6C3HED/OG in CH3/He mice", "format": "in vivo", "settings": "for T/C (Survival ratio: Tested/control) / 62 day survivors / MST (Mean survival time): 10 days; for 62 day survivors: control 0/3; for MST (Mean survival time): control 20.5"}, "[5]": {"tested_on": "lymphoma 6C3HED/OG, solid type", "experiment": "growth of solid lymphoma 6C3HED/OG in CH3/He mice", "format": "in vivo", "settings": "for Inhibition / 21 day survivors / Tumor weight/Body weight / Tumor weight: 10 days; for 21 day survivors: control 7/9; for Tumor weight/Body weight: control 29.6; for Tumor weight: control 7045"}, "[6]": {"settings": "in vivo"}, "L1210 leukemia cells": {"tested_on": "L1210 leukemia cells", "experiment": "survival of mice with L1210 leukemia, treatment days 1, 5 and 9", "format": "in vivo", "settings": "for 30 day survivors / Mean survival time: days 1, 5 and 9; for 30 day survivors: control 0/10; for Mean survival time: control 10.4", "excerpt": "Mice are inoculated intraperitoneally with a suspension of L1210 leukemia cells and treated with solutions of different concentrations of aclacinomycin A and 1, 5 and 9 days following the tumor implantation."}, "hepatomas": {"tested_on": "hepatomas", "experiment": "hepatomas in rats (summary in words)", "format": "in vivo"}},
  "note": "Read-outs that look alike come from different tables or passages of the source.",
  "data": [
    {"compound": "CCC1(O)CC(OC2CC(N(C)C)C(OC3CC4OC5CC(=O)C(C)OC5OC4C(C)O3)C(C)O2)c2c(cc3c(c2O)C(=O)c2c(O)cccc2C3=O)C1C(=O)OC", "note": "(stereo not drawn) [Aclacinomycin B]", "values": [
      {"measurement": "IC50", "setting": "L1210 cells", "result": 0.24, "unit": "µg/mL"},
      {"measurement": "inhibition of cell growth", "setting": "L1210 cells", "result": "over 50%"},
      {"measurement": "lethal dose (LD50), in words", "setting": "Rat", "result": "high lethal dose"},
      {"measurement": "LD50", "setting": "[1]; ip, intraperitoneal", "result": "10 to 15", "unit": "mg/kg"},
      {"measurement": "LD50", "setting": "[1]; intravenous", "result": 15, "unit": "mg/kg"},
      {"measurement": "IC50", "setting": "[2]", "result": 4, "unit": "µg/mL"},
      {"measurement": "cardiotoxicity", "setting": "[3]", "result": "low cardiotoxicity"}
    ]},
    {"compound": "CCC1(O)CC(OC2CC(N(C)C)C(OC3CC(O)C(OC4CCC(=O)C(C)O4)C(C)O3)C(C)O2)c2c(cc3c(c2O)C(=O)c2c(O)cccc2C3=O)C1C(=O)OC", "note": "(stereo not drawn) [Aclacinomycin A]", "values": [
      {"measurement": "survival 30 days after the experiment", "setting": "ascitic hepatoma AH44", "result": "all the treated rats were alive 30 days after the experiment"},
      {"measurement": "IC50", "setting": "L1210 cells", "result": 0.12, "unit": "µg/mL"},
      {"measurement": "inhibition of cell growth", "setting": "L1210 cells", "result": "over 50%"},
      {"measurement": "inhibition of growth of Sarcoma 180", "setting": "Sarcoma 180", "result": "effective in inhibiting the growth"},
      {"measurement": "inhibition of growth of Ehrlich carcinoma", "setting": "Ehrlich carcinoma", "result": "effective in inhibiting the growth"},
      {"measurement": "lethal dose (LD50), in words", "setting": "Rat", "result": "high lethal dose"},
      {"measurement": "LD50", "setting": "[1]; ip, intraperitoneal", "result": "25 to 50", "unit": "mg/kg"},
      {"measurement": "LD50", "setting": "[1]; intravenous", "result": 32.5, "unit": "mg/kg"},
      {"measurement": "T/C (Survival ratio: Tested/control)", "setting": "[4]; 0.5 mg./kg./day i.p.", "result": 73, "unit": "%"},
      {"measurement": "62 day survivors", "setting": "[4]; 0.5 mg./kg./day i.p.", "result": "0/3"},
      {"measurement": "MST (Mean survival time)", "setting": "[4]; 0.5 mg./kg./day i.p.", "result": 15.0, "unit": "days"},
      {"measurement": "T/C (Survival ratio: Tested/control)", "setting": "[4]; 1 mg./kg./day i.p.", "result": 183, "unit": "%"},
      {"measurement": "62 day survivors", "setting": "[4]; 1 mg./kg./day i.p.", "result": "1/3"},
      {"measurement": "MST (Mean survival time)", "setting": "[4]; 1 mg./kg./day i.p.", "result": 37.5, "unit": "days"},
      {"measurement": "T/C (Survival ratio: Tested/control)", "setting": "[4]; 2 mg./kg./day i.p.", "result": 155, "unit": "%"},
      {"measurement": "62 day survivors", "setting": "[4]; 2 mg./kg./day i.p.", "result": "0/3"},
      {"measurement": "MST (Mean survival time)", "setting": "[4]; 2 mg./kg./day i.p.", "result": 31.8, "unit": "days"},
      {"measurement": "T/C (Survival ratio: Tested/control)", "setting": "[4]; 4 mg./kg./day i.p.", "result": 98, "unit": "%"},
      {"measurement": "62 day survivors", "setting": "[4]; 4 mg./kg./day i.p.", "result": "0/3"},
      {"measurement": "MST (Mean survival time)", "setting": "[4]; 4 mg./kg./day i.p.", "result": 20.1, "unit": "days"},
      {"measurement": "inhibition of growth of ascitic 6C3HED/OG tumor (in words)", "setting": "[4]; i.p. daily for 10 days", "result": "marked inhibition of the growth"},
      {"measurement": "Inhibition", "setting": "[5]; 0.5 mg./kg./day i.p.", "result": 47.6, "unit": "%"},
      {"measurement": "21 day survivors", "setting": "[5]; 0.5 mg./kg./day i.p.", "result": "3/3"},
      {"measurement": "Tumor weight/Body weight", "setting": "[5]; 0.5 mg./kg./day i.p.", "result": 12.4, "unit": "%"},
      {"measurement": "Tumor weight", "setting": "[5]; 0.5 mg./kg./day i.p.", "result": 3695, "unit": "mg"},
      {"measurement": "Inhibition", "setting": "[5]; 1 mg./kg./day i.p.", "result": 64.5, "unit": "%"},
      {"measurement": "21 day survivors", "setting": "[5]; 1 mg./kg./day i.p.", "result": "3/3"},
      {"measurement": "Tumor weight/Body weight", "setting": "[5]; 1 mg./kg./day i.p.", "result": 9.5, "unit": "%"},
      {"measurement": "Tumor weight", "setting": "[5]; 1 mg./kg./day i.p.", "result": 2501, "unit": "mg"},
      {"measurement": "Inhibition", "setting": "[5]; 2 mg./kg./day i.p.", "result": 34.2, "unit": "%"},
      {"measurement": "21 day survivors", "setting": "[5]; 2 mg./kg./day i.p.", "result": "3/3"},
      {"measurement": "Tumor weight/Body weight", "setting": "[5]; 2 mg./kg./day i.p.", "result": 15.1, "unit": "%"},
      {"measurement": "Tumor weight", "setting": "[5]; 2 mg./kg./day i.p.", "result": 4633, "unit": "mg"},
      {"measurement": "Inhibition", "setting": "[5]; 4 mg./kg./day i.p.", "result": 28.7, "unit": "%"},
      {"measurement": "21 day survivors", "setting": "[5]; 4 mg./kg./day i.p.", "result": "0/3"},
      {"measurement": "Tumor weight/Body weight", "setting": "[5]; 4 mg./kg./day i.p.", "result": 19.5, "unit": "%"},
      {"measurement": "Tumor weight", "setting": "[5]; 4 mg./kg./day i.p.", "result": 5023, "unit": "mg"},
      {"measurement": "inhibition of growth of solid 6C3HED/OG tumor (in words)", "setting": "[5]; i.p. daily for 10 days", "result": "marked inhibition of the growth"},
      {"measurement": "cardiotoxicity", "setting": "[6]", "result": "low cardiotoxicity"},
      {"measurement": "IC50", "setting": "[2]", "result": 1.1, "unit": "µg/mL"},
      {"measurement": "30 day survivors", "setting": "L1210 leukemia cells; 1.5 mg/kg/day", "result": "0/5"},
      {"measurement": "Mean survival time", "setting": "L1210 leukemia cells; 1.5 mg/kg/day", "result": 12.6, "unit": "days"},
      {"measurement": "30 day survivors", "setting": "L1210 leukemia cells; 3 mg/kg/day", "result": "2/5"},
      {"measurement": "Mean survival time", "setting": "L1210 leukemia cells; 3 mg/kg/day", "result": 23.3, "unit": "days"},
      {"measurement": "30 day survivors", "setting": "L1210 leukemia cells; 6 mg/kg/day", "result": "2/5"},
      {"measurement": "Mean survival time", "setting": "L1210 leukemia cells; 6 mg/kg/day", "result": 21.7, "unit": "days"},
      {"measurement": "30 day survivors", "setting": "L1210 leukemia cells; 12 mg/kg/day", "result": "0/5"},
      {"measurement": "Mean survival time", "setting": "L1210 leukemia cells; 12 mg/kg/day", "result": 16.1, "unit": "days"},
      {"measurement": "mean survival time of the treated mice (in words)", "setting": "L1210 leukemia cells; 6 and 3 mg./kg./day", "result": "increased considerably"},
      {"measurement": "inhibition of growth of hepatomas", "setting": "hepatomas", "result": "effective in inhibiting the growth"}
    ]}
  ]
}
